Assay results from ChEMBL document CHEMBL3580627, “Dibenzazepines and dibenzoxazepines as sodium channel blockers” (Bioorg Med Chem Lett, 2014).
Converted amounts (≈) assume the structure as drawn.

Experiments:
[1] = Kinetic solubility of the compound at pH 1.2; format: physicochemical; conditions: buffer, read-out: Kinetic_solubility
[2] = target: T1, Sodium channel protein type 9 subunit alpha (Homo sapiens, UniProt Q15858); assay: Inhibition of Nav1.7 (unknown origin) expressed in CHO cells after 45 mins by FLIPR assay; format: cell-based
T1 sequence (Q15858 whole entry): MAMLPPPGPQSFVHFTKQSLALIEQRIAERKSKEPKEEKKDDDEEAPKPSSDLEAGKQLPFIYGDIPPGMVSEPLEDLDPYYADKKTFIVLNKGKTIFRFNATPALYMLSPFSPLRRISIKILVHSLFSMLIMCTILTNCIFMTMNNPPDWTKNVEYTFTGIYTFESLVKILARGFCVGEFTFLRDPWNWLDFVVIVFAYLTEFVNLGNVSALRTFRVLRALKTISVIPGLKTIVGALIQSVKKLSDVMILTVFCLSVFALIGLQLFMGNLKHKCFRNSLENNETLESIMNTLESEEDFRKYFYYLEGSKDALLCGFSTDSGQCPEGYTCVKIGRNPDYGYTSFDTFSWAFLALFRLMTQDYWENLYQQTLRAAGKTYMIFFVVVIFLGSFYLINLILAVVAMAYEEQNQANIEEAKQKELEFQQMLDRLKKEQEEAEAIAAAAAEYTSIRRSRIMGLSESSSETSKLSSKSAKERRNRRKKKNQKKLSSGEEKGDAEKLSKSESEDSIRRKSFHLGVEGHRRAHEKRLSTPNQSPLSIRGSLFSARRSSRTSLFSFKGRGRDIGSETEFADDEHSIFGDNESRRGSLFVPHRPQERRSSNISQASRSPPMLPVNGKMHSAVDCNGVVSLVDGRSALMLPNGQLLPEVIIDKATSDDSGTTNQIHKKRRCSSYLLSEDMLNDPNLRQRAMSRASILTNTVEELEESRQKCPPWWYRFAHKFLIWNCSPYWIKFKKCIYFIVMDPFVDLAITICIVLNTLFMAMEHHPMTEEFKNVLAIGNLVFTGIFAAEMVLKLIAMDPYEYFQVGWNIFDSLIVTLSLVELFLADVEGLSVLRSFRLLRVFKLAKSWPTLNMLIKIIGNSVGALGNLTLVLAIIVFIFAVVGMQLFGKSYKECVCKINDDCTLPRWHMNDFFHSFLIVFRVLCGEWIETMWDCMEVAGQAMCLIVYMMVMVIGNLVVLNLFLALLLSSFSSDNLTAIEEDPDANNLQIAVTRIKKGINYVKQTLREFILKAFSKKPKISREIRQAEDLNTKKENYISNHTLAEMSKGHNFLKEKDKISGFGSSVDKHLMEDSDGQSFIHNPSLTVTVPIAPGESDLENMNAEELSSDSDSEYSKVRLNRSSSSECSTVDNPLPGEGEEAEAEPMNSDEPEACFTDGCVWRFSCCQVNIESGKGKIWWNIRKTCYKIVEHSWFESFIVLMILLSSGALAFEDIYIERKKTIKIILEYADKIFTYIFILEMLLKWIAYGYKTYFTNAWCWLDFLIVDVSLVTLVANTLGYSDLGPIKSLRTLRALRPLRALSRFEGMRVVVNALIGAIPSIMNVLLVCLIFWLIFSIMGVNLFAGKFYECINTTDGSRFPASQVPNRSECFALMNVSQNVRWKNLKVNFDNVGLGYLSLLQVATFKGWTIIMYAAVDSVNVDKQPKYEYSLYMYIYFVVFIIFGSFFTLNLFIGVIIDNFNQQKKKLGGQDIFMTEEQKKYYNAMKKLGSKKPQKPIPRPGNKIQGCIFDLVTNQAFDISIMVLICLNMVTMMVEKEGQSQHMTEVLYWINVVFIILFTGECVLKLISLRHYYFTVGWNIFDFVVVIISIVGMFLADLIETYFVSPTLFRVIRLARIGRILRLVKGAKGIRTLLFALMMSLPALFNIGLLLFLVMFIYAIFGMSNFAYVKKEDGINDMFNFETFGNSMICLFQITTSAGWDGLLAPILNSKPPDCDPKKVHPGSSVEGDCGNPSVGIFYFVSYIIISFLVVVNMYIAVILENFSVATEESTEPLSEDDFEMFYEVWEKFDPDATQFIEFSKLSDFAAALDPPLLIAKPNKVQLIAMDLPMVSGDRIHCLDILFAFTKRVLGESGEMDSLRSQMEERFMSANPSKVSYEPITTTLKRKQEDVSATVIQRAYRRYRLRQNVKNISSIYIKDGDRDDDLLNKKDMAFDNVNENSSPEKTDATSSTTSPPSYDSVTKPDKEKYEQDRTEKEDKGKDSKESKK

[3] = Kinetic solubility of the compound at pH 6.8; format: physicochemical; conditions: buffer, read-out: Kinetic_solubility
in vitro [4] = conditions: rat, liver microsomes
Description: Metabolic stability in rat liver microsomes assessed as compound remaining at 1 uM after 30 mins

in vitro [5] = conditions: human, liver microsomes
Description: Metabolic stability in human liver microsomes assessed as compound remaining at 1 uM after 30 mins

[6] = target: T1, Sodium channel protein type 9 subunit alpha; assay: Inhibition of Nav1.7 (unknown origin) by electrophysiological assay

| solubility kinetic [1] [µM] | IC50 [2] [nM] | solubility kinetic [3] [µM] | remaining at 0.5 h, 1 µM (in vitro [4]) [%] | remaining at 0.5 h, 1 µM (in vitro [5]) [%] | Ki [6] [nM] | Compound |
| --- | --- | --- | --- | --- | --- | --- |
| 12 (≈ 4.7 µg/mL) |  | 7 (≈ 2.74 µg/mL) |  |  |  | CC(=O)N1c2ccc(Cl)cc2CCc2cc(-c3cccc(C(N)=O)n3)ccc21 |
| 70 (≈ 29.1 µg/mL) |  | 0.4 (≈ 0.167 µg/mL) | 94 | 98 | 440 | CN1Cc2cc(-c3cccc([C@H](O)CO)n3)ccc2Oc2ccc(C(F)(F)F)cc21 |
| 70 (≈ 32.2 µg/mL) |  | 0.8 (≈ 0.368 µg/mL) | 93 | 94 | 920 | CN1Cc2cc(-c3cccc([C@H](O)[C@@H](O)C(N)=O)n3)ccc2Oc2ccc(C(F)(F)F)cc21 |

More lines, now with the values behind:

| Compound | solubility kinetic [1] [µM] | IC50 [2] [nM] | solubility kinetic [3] [µM] | remaining at 0.5 h, 1 µM (in vitro [4]) [%] | remaining at 0.5 h, 1 µM (in vitro [5]) [%] | Ki [6] [nM] |
| --- | --- | --- | --- | --- | --- | --- |
| NC(=O)c1cccc(-c2ccc3c(c2)CCc2cc(Cl)ccc2N3)n1 | 0.2 (≈ 0.07 µg/mL) |  |  |  |  |  |
| CCN1c2ccc(Cl)cc2CCc2cc(-c3cccc(C(N)=O)n3)ccc21 | 0.2 (≈ 0.0756 µg/mL) | > 10000 |  |  |  |  |
| CN1c2ccc(-c3cccc([C@H](O)CO)n3)cc2CCc2cc(C(F)(F)F)ccc21 | 60 (≈ 24.9 µg/mL) |  | 0.1 (≈ 0.0414 µg/mL) | 72 | 79 |  |
| OC[C@@H](O)c1cccc(-c2ccc3c(c2)CNc2cc(C(F)(F)F)ccc2O3)n1 | 80 (≈ 32.2 µg/mL) |  | 12 (≈ 4.83 µg/mL) |  |  |  |
| NC(=O)CN1Cc2cc(-c3cccc([C@H](O)CO)n3)ccc2Oc2ccc(C(F)(F)F)cc21 | 80 (≈ 36.8 µg/mL) | 1800 | 1 (≈ 0.459 µg/mL) | 91 | 83 |  |
| CN1Cc2cc(C(F)(F)F)ccc2Oc2ccc(-c3cccc([C@H](O)CO)n3)cc21 | 73 (≈ 30.4 µg/mL) |  | 6 (≈ 2.5 µg/mL) | 74 | 91 | 560 |
| NC(=O)N1c2ccccc2C=Cc2ccccc21 [CARBAMAZEPINE] | 75 (≈ 17.7 µg/mL) |  | 74 (≈ 17.5 µg/mL) | 37 | 38 |  |
